{"source": "paper PMC7915724", "about": "(2021)", "key": {"[1]": {"test_system": "FKRAS (DNA, i motif) GCCCGGCCCCCGCTCCTCCCCCGCCGGCCCGGCCCGGCCCCCTCCTTCTCCCCG", "experiment": "MST", "conditions": "100 mM KCl (annealing buffer); 1 μM DNA; assay pH not stated"}, "[2]": {"test_system": "FHairpin (duplex DNA) (DNA, hairpin, HEG linker between nucleotides 10 and 11 (joins the two TATAGCTATA halves)) TATAGCTATATATAGCTATA", "experiment": "MST", "conditions": "1 μM DNA; assay buffer not stated"}, "[3]": {"test_system": "PDGFR-β (DNA, i motif) GCGTCCACCCTCCCTGCCCCGCCGCCCCCCCTTCTCCCAGC", "experiment": "TO displacement, fluorescence", "conditions": "100 mM KCl (annealing buffer); 1 μM DNA, 2 μM thiazole orange displaced; b21 gives lower bound of range as 8.01"}, "[4]": {"test_system": "FBCL2 (DNA, i motif) CAGCCCCGCTCCCGCCCCCTTCCTCCCGCGCCCGCCCCT", "experiment": "MST", "conditions": "100 mM KCl (annealing buffer); 1 μM DNA; assay pH not stated"}, "[5]": {"test_system": "biotin-Pu24 (VEGF G-quadruplex) (DNA, G4) CCGGGGCGGGCCGGGGGCGGGGTC", "experiment": "SPR", "conditions": "100 mM KCl; 20 mM Tris-HCl pH 7.4, 25 °C; tested up to 50 μM"}, "[6]": {"test_system": "c-kit (DNA, i motif) CCCCTCCCTCGCGCCCGCCCG", "experiment": "TO displacement, fluorescence", "conditions": "100 mM KCl (annealing buffer); 1 μM DNA, 2 μM thiazole orange displaced; assay pH not stated"}, "[7]": {"test_system": "FPDGFR-β (DNA, i motif) GCGTCCACCCTCCCTGCCCCGCCGCCCCCCCTTCTCCCAGC", "experiment": "MST", "conditions": "100 mM KCl (annealing buffer); 1 μM DNA; assay pH not stated"}, "[8]": {"test_system": "Pu24 (VEGF G-quadruplex) (DNA, G4) CCGGGGCGGGCCGGGGGCGGGGTC", "experiment": "TO displacement, fluorescence", "conditions": "100 mM KCl (annealing buffer); 1 μM DNA, 2 μM thiazole orange displaced; assay pH not stated"}, "[9]": {"test_system": "Py24 (VEGF i-motif) (DNA, i motif) GACCCCGCCCCCGGCCCGCCCCGG", "experiment": "TO displacement, fluorescence", "conditions": "100 mM KCl (annealing buffer); 1 μM DNA, 2 μM thiazole orange displaced; assay pH not stated"}, "[10]": {"test_system": "Fc-kit (DNA, i motif) CCCCTCCCTCGCGCCCGCCCG", "experiment": "MST", "conditions": "100 mM KCl (annealing buffer); 1 μM DNA; assay pH not stated"}, "[11]": {"test_system": "biotin-Py24 (VEGF i-motif) (DNA, i motif) GACCCCGCCCCCGGCCCGCCCCGG", "experiment": "SPR", "conditions": "100 mM KCl, 20 mM MES pH 5.5, 0.05% Tween-20, 25 °C"}, "[12]": {"test_system": "Py24 (VEGF i-motif) (DNA, i motif) GACCCCGCCCCCGGCCCGCCCCGG", "experiment": "ITC", "conditions": "100 mM KCl, 30 mM KH2PO4, 30 mM K2HPO4; 1× BPES (1 mM EDTA) pH 5.0, 30 °C; Py24 titrated into 3c; one-site fit"}, "[13]": {"test_system": "FPu24 (DNA, G4) CCGGGGCGGGCCGGGGGCGGGGTC", "experiment": "MST", "conditions": "100 mM KCl (annealing buffer); 1 μM DNA; assay pH not stated"}, "[14]": {"test_system": "BCL2 (DNA, i motif) CAGCCCCGCTCCCGCCCCCTTCCTCCCGCGCCCGCCCCT", "experiment": "TO displacement, fluorescence", "conditions": "100 mM KCl (annealing buffer); 1 μM DNA, 2 μM thiazole orange displaced; assay pH not stated"}, "[15]": {"test_system": "FPy24 (DNA, i motif) GACCCCGCCCCCGGCCCGCCCCGG", "experiment": "MST", "conditions": "100 mM KCl (annealing buffer); 1 μM DNA; assay pH not stated"}, "[16]": {"test_system": "biotin-Hairpin (duplex DNA) (DNA, hairpin, HEG linker between nucleotides 10 and 11 (joins the two TATAGCTATA halves)) TATAGCTATATATAGCTATA", "experiment": "SPR", "conditions": "100 mM KCl; 20 mM Tris-HCl pH 7.4, 25 °C; tested up to 50 μM"}, "[17]": {"test_system": "KRAS (DNA, i motif) GCCCGGCCCCCGCTCCTCCCCCGCCGGCCCGGCCCGGCCCCCTCCTTCTCCCCG", "experiment": "TO displacement, fluorescence", "conditions": "100 mM KCl (annealing buffer); 1 μM DNA, 2 μM thiazole orange displaced; assay pH not stated"}, "[18]": {"test_system": "biotin-Hairpin (duplex DNA) (DNA, hairpin, HEG (hexaethylene glycol) linker between 10 and 11) TATAGCTATATATAGCTATA", "experiment": "SPR", "conditions": "100 mM KCl; 20 mM Tris-HCl pH 7.4, 25 °C; tested up to 50 μM"}, "[19]": {"test_system": "biotin-Pu24 (VEGF G-quadruplex) (DNA, G4) CCGGGGCGGGCCGGGGGCGGGGTC", "experiment": "SPR", "conditions": "100 mM KCl; 20 mM Tris-HCl pH 7.4, 25 °C; tested up to 50 μM", "remark": "listed apart in the source"}}}
{"smiles": "CC1(C)CC[C@]2(C(=O)NCCCNCCNCCCN)CC[C@]3(C)C(=CC[C@@H]4[C@@]5(C)CC[C@H](O)C(C)(C)[C@@H]5CC[C@]43C)[C@@H]2C1", "values": [{"measurement": "KD", "setting": "[1]", "result": 37.8, "unit": "µM"}, {"measurement": "KD", "setting": "[2]", "result": 91.4, "unit": "µM"}, {"measurement": "DC50", "setting": "[3]", "result": 8.08, "unit": "µM"}, {"measurement": "KD", "setting": "[4]", "result": 95.1, "unit": "µM"}, {"measurement": "KD", "setting": "[5]", "result": "> 50", "unit": "µM"}, {"measurement": "DC50", "setting": "[6]", "result": 14.7, "unit": "µM"}, {"measurement": "KD", "setting": "[7]", "result": 14.4, "unit": "µM"}, {"measurement": "DC50", "setting": "[8]", "result": 8.29, "unit": "µM"}, {"measurement": "DC50", "setting": "[9]", "result": 3.19, "unit": "µM"}, {"measurement": "KD", "setting": "[10]", "result": 43.3, "unit": "µM"}, {"measurement": "KD", "setting": "[11]; b20 prints 1.93", "result": 1.95, "unit": "µM"}, {"measurement": "KD", "setting": "[12]", "result": 1.13, "unit": "µM"}, {"measurement": "KD", "setting": "[13]", "result": 47.9, "unit": "µM"}, {"measurement": "DC50", "setting": "[14]", "result": 16.1, "unit": "µM"}, {"measurement": "KD", "setting": "[15]", "result": 1.14, "unit": "µM"}, {"measurement": "KD", "setting": "[16]", "result": "> 50", "unit": "µM"}, {"measurement": "DC50", "setting": "[17]", "result": 13.1, "unit": "µM"}]}
{"smiles": "CC1(C)CC[C@]2(C(=O)NCCNC(=O)/C=C/c3ccc(O)c(O)c3)CC[C@]3(C)C(=CC[C@@H]4[C@@]5(C)CC[C@H](O)C(C)(C)[C@@H]5CC[C@]43C)[C@@H]2C1", "values": [{"measurement": "KD", "setting": "[5]", "result": "> 50", "unit": "µM"}, {"measurement": "KD", "setting": "[11]", "result": 3.09, "unit": "µM"}, {"measurement": "KD", "setting": "[16]", "result": "> 50", "unit": "µM"}]}
{"smiles": "CCN(CC)CCNC(=O)C1=C[C@]2(C)[C@H]3CC=C4[C@@H]5CC(C)(C)CC[C@]5(C(=O)OC)CC[C@@]4(C)[C@]3(C)CC[C@H]2C(C)(C)C1=O", "values": [{"measurement": "KD", "setting": "[18]", "result": "> 50", "unit": "µM"}, {"measurement": "KD", "setting": "[11]; tested up to 50 μM", "result": "> 50", "unit": "µM"}, {"measurement": "KD", "setting": "[19]", "result": "> 50", "unit": "µM"}]}
{"smiles": "Cc1cn(CC(=O)NCCCNCCNCCCNC(=O)[C@]23CCC(C)(C)C[C@H]2C2=CC[C@@H]4[C@@]5(C)CC[C@H](O)C(C)(C)[C@@H]5CC[C@@]4(C)[C@]2(C)CC3)c(=O)[nH]c1=O", "values": [{"measurement": "KD", "setting": "[5]", "result": "> 50", "unit": "µM"}, {"measurement": "KD", "setting": "[11]", "result": 5.01, "unit": "µM"}, {"measurement": "KD", "setting": "[16]", "result": "> 50", "unit": "µM"}]}
